Target: P70S6K (Homo sapiens (Human), UniProt P23443, T412E)
Assay: P70S6K Enzyme Assay
Type: biochemical
Settings: P70S6K T412E mutant, 24 μM ATP, mobility shift (Caliper)
Description: P70S6K inhibitor compounds are diluted and plated in 96 well plates. […] The reaction is incubated for 90 min at 25° C., before the addition of 10 mM EDTA to stop the reaction. The proportion of substrate and product (phosphorylated) peptide is analysed on a Caliper Life Sciences Lab Chip 3000, using a pressure of −1.4 psi, and upstream and downstream voltages of −3000 and −700 respectively. Product peaks are resolved before substrate peaks on the resulting chromatograms.

Sequence of P70S6K (P23443 1-421 T412E): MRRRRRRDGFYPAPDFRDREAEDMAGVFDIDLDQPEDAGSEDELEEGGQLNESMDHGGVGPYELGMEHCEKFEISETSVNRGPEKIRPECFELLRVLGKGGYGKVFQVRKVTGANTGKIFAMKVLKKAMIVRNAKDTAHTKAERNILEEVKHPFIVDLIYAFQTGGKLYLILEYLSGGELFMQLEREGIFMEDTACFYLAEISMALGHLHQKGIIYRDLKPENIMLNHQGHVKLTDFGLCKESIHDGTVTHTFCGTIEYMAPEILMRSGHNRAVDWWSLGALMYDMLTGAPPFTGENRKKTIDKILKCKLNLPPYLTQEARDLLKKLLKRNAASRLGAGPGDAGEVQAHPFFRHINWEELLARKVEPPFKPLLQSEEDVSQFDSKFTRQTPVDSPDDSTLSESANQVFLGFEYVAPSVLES

Compound	IC50 [nM]
NC(=O)c1ccc(NCc2ccc(Cl)c(C(F)(F)F)c2)c2cccnc12 [Example 38, 5-(4-Chloro-3-trifluoromethylbenzylamino)-quinoline-8-carboxamide]	> 1000
NC(=O)c1ccc(NCC2(C(=O)Nc3ccccc3)CCNC2)c2cccnc12 (racemic) [Example 20, 5-(((3-(phenylcarbamoyl)pyrrolidin-3-yl)methyl)amino)quinoline-8-carboxamide]	> 1000
NC(=O)c1ccc(NCc2ccc(F)c(F)c2)c2cccnc12 [Example 35, 5-(3,4-Difluorobenzylamino)-quinoline-8-carboxamide]	> 1000
NC(=O)c1ccc(NC2CNC[C@H]2c2cc(F)cc(Cl)c2)c2cccnc12 (stereo partly drawn) [Example 26, 5-(((4R)-4-(3-chloro-5-fluorophenyl)pyrrolidin-3-yl)amino)quinoline-8-carboxamide]	350
NC(=O)c1ccc(N[C@@H]2CNC[C@@H]2c2cccc(OC(F)(F)F)c2)c2cccnc12 (racemic) [Example 24, 5-((-4-(3-(trifluoromethoxy)phenyl)pyrrolidin-3-yl)amino)quinoline-8-carboxamide]	23
NC(=O)c1ccc(N2CCC(N)(CNC(=O)c3ccc(F)cc3F)C2)c2cncnc12 (racemic) [Example 9, 5-(3-amino-3-((2,4-difluorobenzamido)methyl)pyrrolidin-1-yl)quinazoline-8-carboxamide]	> 1000
NC(=O)c1ccc(N2CCC(N)(CNC(=O)c3ccc(F)cc3O)C2)c2cncnc12 (racemic) [Example 10, 5-(3-amino-3-((4-fluoro-2-hydroxybenzamido)methyl)pyrrolidin-1-yl)quinazoline-8-carboxamide]	> 1000
NC(=O)c1ccc(NC2CNC[C@@H]2c2cccc(OC(F)(F)F)c2)c2cccnc12 (single isomer, unassigned) [Example 22]	31
NC(=O)c1ccc(N[C@@H]2CNCC[C@H]2c2ccc(C(F)(F)F)c(F)c2)c2cncnc12 (single isomer, unassigned) [Example 6]	54
NC(=O)c1ccc(NC2CNC[C@@H]2c2ccc(OC(F)(F)F)cc2)c2cncnc12 (mixture of isomers) [Example 1, 5-((4-(4-(trifluoromethoxy)phenyl)pyrrolidin-3-yl)amino)quinazoline-8-carboxamide]	23
NC(=O)c1ccc(NC2CNC[C@@H]2C(=O)Nc2cccc(F)c2)c2cncnc12 (mixture of isomers) [Example 13, 5-((-4-((3-fluorophenyl)carbamoyl)pyrrolidin-3-yl)amino)quinazoline-8-carboxamide]	290
NC(=O)c1ccc(NC2CNC[C@@H]2c2cc(F)cc(Cl)c2)c2cncnc12 (mixture of isomers) [Example 2, 5-((4-(3-chloro-5-fluorophenyl)pyrrolidin-3-yl)amino)quinazoline-8-carboxamide]	160
NC(=O)c1ccc(NC2CNC[C@@H]2c2ccc3cccnc3c2)c2cccnc12 (mixture of isomers) [Example 17, 5-((-4-(quinolin-7-yl)pyrrolidin-3-yl)amino)quinoline-8-carboxamide]	190
NC(=O)c1ccc(NCc2ccc(F)c(C(F)(F)F)c2)c2cccnc12 [Example 37, 5-(4-Fluoro-3-trifluoromethylbenzylamino)-quinoline-8-carboxamide]	695
NC(=O)c1ccc(N[C@@H]2CNC[C@H]2c2cccc(OC(F)(F)F)c2)c2cccnc12 (single isomer, unassigned) [Example 23]	690
NCC1(C(=O)Nc2ccccc2)CCCN(c2ccc(C(N)=O)c3ncncc23)C1 (racemic) [Example 11, 5-(3-(aminomethyl)-3-(phenylcarbamoyl)piperidin-1-yl)quinazoline-8-carboxamide]	> 1000
NC(=O)c1ccc(NC2CNC[C@@H]2c2cccc(OC(F)(F)F)c2)c2cccnc12 (mixture of isomers) [Example 21, 5-((-4-(3-(trifluoromethoxy)phenyl)pyrrolidin-3-yl)amino)quinoline-8-carboxamide]	22
NC(=O)c1ccc(N2CCNC(c3ccccc3)C2)c2cccnc12 (racemic) [Example 18, 5-(3-phenylpiperazin-1-yl)quinoline-8-carboxamide]	670
NC(=O)c1ccc(NCc2ccccc2F)c2cccnc12 [Example 32, 5-(2-Fluorobenzylamino)-quinoline-8-carboxamide]	> 1000
NC(=O)c1ccc(NCC2(C(=O)Nc3ccccc3)CCNCC2)c2cncnc12 [Example 14, 5-(((4-(phenylcarbamoyl)piperidin-4-yl)methyl)amino)quinazoline-8-carboxamide]	> 1000

Results, then the molecule that gave them:

IC50 [nM]	Compound
2000	NC(=O)c1ccc(N2CCC(N)(C(=O)Nc3cccc(F)c3)C2)c2cncnc12 (racemic) [Example 45, 5-(3-amino-3-((3-fluorophenyl)carbamoyl)pyrrolidin-1-yl)quinazoline-8-carboxamide]
450	NC(=O)c1ccc(N2CC[C@@H](CNC(=O)c3ccc(F)c(F)c3)C2)c2cncnc12 (single isomer, unassigned) [Example 115]
7100	NC(=O)c1ccc(N2CC[C@H](c3ccc(F)cc3)[C@@H](N)C2)c2cncnc12 (racemic) [Example 87, 5-[(3R,4R)-3-Amino-4-(4-fluoro-phenyl)-piperidin-1-yl]-quinazoline-8-carboxylic acid amide]
1200	NC(=O)c1ccc(N2CCC(N)(C(=O)Nc3ccc(F)cc3)C2)c2cncnc12 (racemic) [Example 43, 5-[3-amino-3-[(4-fluorophenyl)carbamoyl]pyrrolidin-1-yl]quinazoline-8-carboxamide]
17100	NC(=O)c1ccc(N2CC[C@H](c3cccc(F)c3)[C@H](N)C2)c2cncnc12 (racemic) [Example 88, 5-[(3S,4R)-3-Amino-4-(3-fluoro-phenyl)-piperidin-1-yl]-quinazoline-8-carboxylic acid amide]
2400	NC(=O)c1ccc(N2CC[C@H](c3cccc(F)c3)[C@@H](N)C2)c2cncnc12 (racemic) [Example 89, 5-[(3R,4R)-3-Amino-4-(3-fluoro-phenyl)-piperidin-1-yl]-quinazoline-8-carboxylic acid amide]
350	NC(=O)c1ccc(N2CCC(c3ccc(C(F)(F)F)cc3)C(N)C2)c2cncnc12 (racemic) [Example 83, 5-(3-amino-4-(4-(trifluoromethyl)phenyl)piperidin-1-yl)quinazoline-8-carboxamide]
1300	NC(=O)c1ccc(N2CCC(N)(C(=O)Nc3ccc(F)c(F)c3)C2)c2cncnc12 (racemic) [Example 44, 5-(3-amino-3-((3,4-difluorophenyl)carbamoyl)pyrrolidin-1-yl)quinazoline-8-carboxamide]
260	NC(=O)c1ccc(N2CCC(CNC(=O)c3ccc(F)cc3F)C2)c2cncnc12 (racemic) [Example 112, 5-{3-[(2,4-Difluoro-benzoylamino)-methyl]-pyrrolidin-1-yl}-quinazoline-8-carboxylic acid amide]
980	Cc1ccccc1N1CCN(c2ccc(C(N)=O)c3ncncc23)CC1 [Example 120, 5-[4-(2-methyl-phenyl)-piperazin-1-yl]-quinazoline-8-carboxylic acid amide]
510	NC(=O)c1ccc(N2CCC(CNC(=O)c3cc(F)ccc3F)C2)c2cncnc12 (racemic) [Example 106, 5-(3-((2,5-difluorobenzamido)methyl)pyrrolidin-1-yl)quinazoline-8-carboxamide]
> 1000	NC(=O)c1ccc(NC(CN2CCCC2)c2ccccc2)c2cccnc12 (stereo not shown) [Example 39]
12000	NC(=O)c1ccc(N2CCN(c3ccccc3F)CC2)c2cncnc12 [Example 121, 5-[4-(2-fluorophenyl)-piperazin-1-yl]-quinazoline-8-carboxylic acid amide]
2150	NC(=O)c1ccc(N2CC[C@@](N)(C(=O)Nc3ccccc3)C2)c2cncnc12 (single isomer, unassigned) [Example 84]
380	NC(=O)c1ccc(N2CCC(NC(=O)c3ccc(F)c(F)c3)C2)c2cncnc12 (racemic) [Example 50, 5-(3-(3,4-difluorobenzamido)pyrrolidin-1-yl)quinazoline-8-carboxamide]
290	NC(=O)c1ccc(N2CCC(CNC(=O)c3ccc(C(F)(F)F)cc3F)C2)c2cncnc12 (racemic) [Example 55, 5-(3-((2-fluoro-4-(trifluoromethyl)benzamido)methyl)pyrrolidin-1-yl)quinazoline-8-carboxamide]
7900	NC(=O)c1ccc(N2CCC(NC(=O)Cc3ccccc3)C2)c2cncnc12 (racemic) [Example 47, 5-(3-(2-phenylacetamido)pyrrolidin-1-yl)quinazoline-8-carboxamide]
380	NC(=O)c1ccc(N2CC[C@](N)(C(=O)Nc3ccc(F)c(C(F)(F)F)c3)C2)c2cncnc12 (single isomer, unassigned) [Example 117]
11500	NC(=O)c1ccc(N2CC[C@](N)(C(=O)Nc3ccccc3)C2)c2cncnc12 (single isomer, unassigned) [Example 85]
1600	CN(C)CCN(Cc1ccccc1)C(=O)C1CCN(c2ccc(C(N)=O)c3ncncc23)C1 (racemic) [Example 49, 5-(3-(benzyl(2-(dimethylamino)ethyl)carbamoyl)pyrrolidin-1-yl)quinazoline-8-carboxamide]
470	NC(=O)c1ccc(N2CC[C@H](CNC(=O)c3ccc(F)c(F)c3)C2)c2cncnc12 (single isomer, unassigned) [Example 114]
680	NC(=O)c1ccc(NCc2ccccc2)c2cccnc12 [Example 42, 5-(Benzylamino)quinoline-8-carboxamide]
11000	COc1ccccc1N1CCN(c2ccc(C(N)=O)c3ncncc23)CC1 [Example 122, 5-[4-(2-methoxyphenyl)-piperazin-1-yl]-quinazoline-8-carboxylic acid amide]

— patent US9139568B2 (Merck Patent GmbH, priority 2011, dated 2015)
